What was measured:
Recombinant ROCK2 = Recombinant ROCK2 (Homo sapiens (Human), UniProt O75116); test: Lance Ultra Kinase Assay, ROCK2 inhibition; assay type: biochemical; conditions: ATP at Km, 30 min pre-incubation, 1 h reaction
Recombinant ROCK1 = Recombinant ROCK1 (Homo sapiens (Human), UniProt Q13464); test: Lance Ultra Kinase Assay, ROCK1 inhibition; assay type: biochemical; conditions: ATP at Km, 30 min pre-incubation, 1 h reaction
Sequence of Recombinant ROCK1 (Q13464 whole entry): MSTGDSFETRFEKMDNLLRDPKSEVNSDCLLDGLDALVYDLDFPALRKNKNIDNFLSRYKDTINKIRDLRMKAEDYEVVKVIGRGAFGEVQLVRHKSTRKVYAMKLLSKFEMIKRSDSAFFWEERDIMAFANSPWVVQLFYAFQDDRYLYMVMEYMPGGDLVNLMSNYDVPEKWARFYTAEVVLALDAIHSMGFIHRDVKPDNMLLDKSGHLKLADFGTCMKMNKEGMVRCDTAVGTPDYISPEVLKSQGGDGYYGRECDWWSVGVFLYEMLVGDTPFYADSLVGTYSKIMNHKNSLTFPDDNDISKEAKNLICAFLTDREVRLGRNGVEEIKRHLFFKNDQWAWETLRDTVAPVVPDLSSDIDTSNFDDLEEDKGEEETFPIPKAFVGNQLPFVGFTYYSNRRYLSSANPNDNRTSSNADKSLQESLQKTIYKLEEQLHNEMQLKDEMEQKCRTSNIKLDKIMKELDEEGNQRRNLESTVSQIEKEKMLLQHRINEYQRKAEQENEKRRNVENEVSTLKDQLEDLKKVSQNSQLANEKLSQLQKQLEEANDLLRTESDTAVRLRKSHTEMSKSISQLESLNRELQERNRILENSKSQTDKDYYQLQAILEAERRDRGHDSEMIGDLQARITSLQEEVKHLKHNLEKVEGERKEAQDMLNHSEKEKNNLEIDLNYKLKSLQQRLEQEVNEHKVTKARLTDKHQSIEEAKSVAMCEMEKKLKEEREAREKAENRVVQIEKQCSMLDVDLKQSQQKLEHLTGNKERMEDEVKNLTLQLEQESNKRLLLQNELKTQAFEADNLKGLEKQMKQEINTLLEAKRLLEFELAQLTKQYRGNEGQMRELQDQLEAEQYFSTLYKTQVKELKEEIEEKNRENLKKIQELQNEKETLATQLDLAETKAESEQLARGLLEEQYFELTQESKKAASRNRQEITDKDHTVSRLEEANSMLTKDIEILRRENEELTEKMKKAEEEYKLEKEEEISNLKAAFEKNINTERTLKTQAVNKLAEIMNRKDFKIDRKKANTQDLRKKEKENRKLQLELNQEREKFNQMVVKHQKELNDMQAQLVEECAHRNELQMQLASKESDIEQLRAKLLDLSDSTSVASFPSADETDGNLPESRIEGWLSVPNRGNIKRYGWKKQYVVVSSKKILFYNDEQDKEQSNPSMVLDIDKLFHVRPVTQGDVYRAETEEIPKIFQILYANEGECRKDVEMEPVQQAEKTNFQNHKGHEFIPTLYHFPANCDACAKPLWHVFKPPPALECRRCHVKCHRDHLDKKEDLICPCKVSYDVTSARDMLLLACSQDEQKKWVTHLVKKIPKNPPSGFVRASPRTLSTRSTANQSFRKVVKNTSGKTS

Sequence of Recombinant ROCK2 (O75116 whole entry): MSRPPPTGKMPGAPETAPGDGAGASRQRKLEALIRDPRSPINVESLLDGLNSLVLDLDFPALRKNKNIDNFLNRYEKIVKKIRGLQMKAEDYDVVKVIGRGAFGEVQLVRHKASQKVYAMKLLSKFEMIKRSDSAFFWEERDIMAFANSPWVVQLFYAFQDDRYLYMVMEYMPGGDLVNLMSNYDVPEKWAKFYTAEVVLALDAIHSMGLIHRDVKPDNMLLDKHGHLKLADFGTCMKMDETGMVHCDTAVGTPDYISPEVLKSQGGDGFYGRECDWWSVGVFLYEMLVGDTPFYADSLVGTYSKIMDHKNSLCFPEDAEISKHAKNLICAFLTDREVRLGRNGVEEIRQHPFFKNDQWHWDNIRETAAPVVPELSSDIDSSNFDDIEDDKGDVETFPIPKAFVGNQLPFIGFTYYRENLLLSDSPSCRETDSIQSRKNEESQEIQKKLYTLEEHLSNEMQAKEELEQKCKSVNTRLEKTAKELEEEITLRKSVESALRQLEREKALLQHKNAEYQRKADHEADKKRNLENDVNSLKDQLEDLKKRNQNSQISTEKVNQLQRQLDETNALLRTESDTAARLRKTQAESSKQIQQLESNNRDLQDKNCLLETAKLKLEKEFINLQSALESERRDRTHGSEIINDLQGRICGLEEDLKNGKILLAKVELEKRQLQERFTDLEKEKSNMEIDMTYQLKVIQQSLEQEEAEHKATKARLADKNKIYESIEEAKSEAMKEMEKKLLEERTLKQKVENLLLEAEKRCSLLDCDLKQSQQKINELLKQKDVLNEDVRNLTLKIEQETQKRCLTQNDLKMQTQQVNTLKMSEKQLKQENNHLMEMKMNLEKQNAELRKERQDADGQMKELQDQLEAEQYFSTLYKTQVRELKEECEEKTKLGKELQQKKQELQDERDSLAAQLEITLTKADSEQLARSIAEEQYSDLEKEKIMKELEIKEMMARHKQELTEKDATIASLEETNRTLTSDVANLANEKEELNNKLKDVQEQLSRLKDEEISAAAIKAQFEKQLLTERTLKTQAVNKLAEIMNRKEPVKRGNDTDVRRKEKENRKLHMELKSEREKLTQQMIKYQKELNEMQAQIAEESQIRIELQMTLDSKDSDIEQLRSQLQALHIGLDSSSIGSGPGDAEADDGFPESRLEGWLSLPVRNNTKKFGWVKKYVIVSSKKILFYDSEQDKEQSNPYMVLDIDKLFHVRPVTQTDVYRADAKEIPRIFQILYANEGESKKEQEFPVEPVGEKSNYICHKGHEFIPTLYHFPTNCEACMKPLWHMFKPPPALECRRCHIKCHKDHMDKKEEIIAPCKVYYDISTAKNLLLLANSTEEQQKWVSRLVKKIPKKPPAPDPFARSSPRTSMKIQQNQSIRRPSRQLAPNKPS

| SMILES | IC50 (Recombinant ROCK2) | IC50 (Recombinant ROCK1) |
| --- | --- | --- |
| N#Cc1ccc(C(CN)C(=O)Nc2cccc3c(-c4cn[nH]c4)c[nH]c23)cc1 (single isomer, unassigned) [Example 58, N-(3-(1H-pyrazol-4-yl)-1H-indol-7-yl)-3-amino-2-(4-cyanophenyl)propanamide] | 48 nM | 136 nM |
| NCC(C(=O)Nc1cccc2c(-c3cn[nH]c3)c[nH]c12)c1ccc(C(=O)O)cc1 (racemic) [Example 71, 4-(2-amino-1-{[3-(1H-pyrazol-4-yl)-1H-indol-7-yl]carbamoyl}ethyl)benzoic acid] | 64 nM | 227 nM |
| NCC(C(=O)Nc1cccc2c(-c3cn[nH]c3)c[nH]c12)c1cccc(C(=O)O)c1 (racemic) [Example 70, 3-(2-amino-1-{[3-(1H-pyrazol-4-yl)-1H-indol-7-yl]carbamoyl}ethyl)benzoic acid] | 0.6 nM | 2.2 nM |
| NCC(C(=O)Nc1cccc2c(-c3cn[nH]c3)c[nH]c12)c1cccc(N)c1 (racemic) [Example 81, 3-amino-2-(3-aminophenyl)-N-[3-(1H-pyrazol-4-yl)-1H-indol-7-yl]propanamide] | 0.91 nM | 1.8 nM |
| COCCOc1ccc(C(CN)C(=O)Nc2cccc3c(-c4cn[nH]c4)c[nH]c23)cc1 (racemic) [Example 88, 3-amino-2-[4-(2-methoxyethoxy)phenyl]-N-[3-(1H-pyrazol-4-yl)-1H-indol-7-yl]propanamide] | 9.3 nM | 17 nM |
| NCC(C(=O)Nc1cccc2c(-c3cn[nH]c3)c[nH]c12)c1cccc(O)c1 (single isomer, unassigned) [Example 65, N-(3-(1H-pyrazol-4-yl)-1H-indol-7-yl)-3-amino-2-(3-hydroxyphenyl)propanamide] | 2.5 nM | 4.4 nM |
| Cc1cncc(C(CN)C(=O)Nc2cccc3c(-c4cn[nH]c4)c[nH]c23)c1 (single isomer, unassigned) [Example 63, N-(3-(1H-pyrazol-4-yl)-1H-indol-7-yl)-3-amino-2-(5-methylpyridin-3-yl)propanamide] | 0.24 nM | 0.43 nM |
| N#Cc1cccc([C@@H](N)C(=O)Nc2cccc3c(-c4cn[nH]c4)c[nH]c23)c1 (single isomer, unassigned) [Example 68, N-(3-(1H-pyrazol-4-yl)-1H-indol-7-yl)-2-amino-2-(3-cyanophenyl) acetamide] | 1.5 nM | 4 nM |
| CN1CCN(CC(C(=O)Nc2cccc3c(-c4cn[nH]c4)c[nH]c23)c2cccnc2)CC1 (single isomer, unassigned) [Example 67, N-(3-(1H-pyrazol-4-yl)-1H-indol-7-yl)-3-(4-methylpiperazin-1-yl)-2-(pyridin-3-yl)propanamide] | 1.6 nM | 2.6 nM |
| NCC(C(=O)Nc1cccc2c(-c3cn[nH]c3)c[nH]c12)C1CCCCC1 (single isomer, unassigned) [Example 24, N-(3-(1H-pyrazol-4-yl)-1H-indol-7-yl)-3-amino-2-cyclohexylpropanamide] | 3 nM | 4 nM |
| CNC(=O)c1ccc(C(CN)C(=O)Nc2cccc3c(-c4cn[nH]c4)c[nH]c23)cc1 (racemic) [Example 73, 4-(2-amino-1-{[3-(1H-pyrazol-4-yl)-1H-indol-7-yl]carbamoyl}ethyl)-N-methylbenzamide] | 20 nM | 82 nM |
| NCC(C(=O)Nc1cccc2c(-c3cn[nH]c3)c[nH]c12)c1ccc(N)cc1 (racemic) [Example 80, 3-amino-2-(4-aminophenyl)-N-[3-(1H-pyrazol-4-yl)-1H-indol-7-yl]propanamide] | 0.18 nM | 0.39 nM |
| NCC(C(=O)Nc1cccc2c(-c3cn[nH]c3)c[nH]c12)c1ccc(CO)cc1 (racemic) [Example 1, N-(3-(1H-pyrazol-4-yl)-1H-indol-7-yl)-3-amino-2-(4-(hydroxymethyl)phenyl)propanamide] | 0.27 nM | 0.59 nM |
| COc1cccc([C@@H](C(=O)Nc2cccc3c(-c4cn[nH]c4)c[nH]c23)C2CCN(C)CC2)c1 (single isomer, unassigned) [Example 29, N-(3-(1H-pyrazol-4-yl)-1H-indol-7-yl)-2-(3-methoxyphenyl)-2-(1-methylpiperidin-4-yl) acetamide] | 23 nM | 59 nM |

More lines, now with the values ahead:

| IC50 (Recombinant ROCK2) | IC50 (Recombinant ROCK1) | SMILES |
| --- | --- | --- |
| 0.39 nM | 0.76 nM | N[C@H](C(=O)Nc1cccc2c(-c3cn[nH]c3)c[nH]c12)c1cccnc1 (single isomer, unassigned) [Example 132, N-(3-(1H-pyrazol-4-yl)-1H-indol-7-yl)-2-amino-2-(pyridin-3-yl) acetamide] |
| 37 nM | 113 nM | COc1cccc(C(NC(=O)c2cccc3c(-c4cn[nH]c4)c[nH]c23)C2CCN(C)CC2)c1 (single isomer, unassigned) [Example 142, N-((3-methoxyphenyl) (1-methylpiperidin-4-yl)methyl)-3-(1H-pyrazol-4-yl)-1H-indole-7-carboxamide] |
| 11 nM | 15 nM | N[C@@H](Cc1c[nH]c2ccccc12)C(=O)Nc1cccc2c(-c3cn[nH]c3)c[nH]c12 [Example 109, (2S)-2-amino-3-(1H-indol-3-yl)-N-[3-(1H-pyrazol-4-yl)-1H-indol-7-yl]propanamide] |
| 0.47 nM | 1.3 nM | NCC(C(=O)Nc1cccc2c(-c3cn[nH]c3)c[nH]c12)c1ccc(C(N)=O)cc1 (single isomer, unassigned) [Example 112, 4-(1-((3-(1H-pyrazol-4-yl)-1H-indol-7-yl)amino)-3-amino-1-oxopropan-2-yl)benzamide] |
| 0.86 nM | 2.8 nM | NCCC(NC(=O)c1cccc2c(-c3cn[nH]c3)c[nH]c12)c1ccccc1 (racemic) [Example 140, N-(3-amino-1-phenylpropyl)-3-(1H-pyrazol-4-yl)-1H-indole-7-carboxamide] |
| 31 nM | 44 nM | O=C(Nc1cccc2c(-c3cn[nH]c3)c[nH]c12)C1CNCc2ccccc21 (racemic) [Example 133, N-(3-(1H-pyrazol-4-yl)-1H-indol-7-yl)-1,2,3,4-tetrahydroisoquinoline-4-carboxamide] |
| 167 nM | 297 nM | COc1cncc(C(CN2CCN(C)CC2)C(=O)Nc2cccc3c(-c4cn[nH]c4)c[nH]c23)c1 (single isomer, unassigned) [Example 111, N-(3-(1H-pyrazol-4-yl)-1H-indol-7-yl)-2-(5-methoxypyridin-3-yl)-3-(4-methylpiperazin-1-yl)propanamide] |
| 315 nM | 397 nM | CN1CCC(C(NC(=O)c2cccc3c(-c4cn[nH]c4)c[nH]c23)C2CCCCC2)CC1 (racemic) [Example 143, N-[cyclohexyl (1-methylpiperidin-4-yl)methyl]-3-(1H-pyrazol-4-yl)-1H-indole-7-carboxamide] |
| 1.1 nM | 3.2 nM | CC(=O)NCc1ccc(C(CN)C(=O)Nc2cccc3c(-c4cn[nH]c4)c[nH]c23)cc1 (racemic) [Example 99, N-(3-(1H-pyrazol-4-yl)-1H-indol-7-yl)-2-(4-(acetamidomethyl)phenyl)-3-aminopropanamide] |
| 4.9 nM | 18 nM | NCC(NC(=O)c1cccc2c(-c3cn[nH]c3)c[nH]c12)c1ccc(CO)cc1 (racemic) [Example 146, N-(2-amino-1-(4-(hydroxymethyl)phenyl)ethyl)-3-(1H-pyrazol-4-yl)-1H-indole-7-carboxamide] |

Source: US20250346616A1 (DIZAL (JIANGSU) PHARMACEUTICAL CO., LTD., priority 2022, published 2025)
